# Assay results: PubChem BioAssay (NCI)
#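 Five compound concentrations were applied to cells in 96-well plates for 48 hours; endpoints were derived by simple linear interpolation of the resulting dose-response curve. TGI: concentration producing complete growth inhibition.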
# How the values were obtained:
# Assay in all cases: NCI tumour cell line growth inhibition, 48 h
# [1] = tested on: PC-3 prostate
# [2] = tested on: SF-539 CNS
# [3] = tested on: HCT-15 colon
# [4] = tested on: A549 NSCLC
# [5] = tested on: SK-OV-3 ovarian
# [6] = tested on: M14 melanoma
# [7] = tested on: K-562 leukemia
# [8] = tested on: A498 renal
# [9] = tested on: NCI-H460 lung
# [10] = tested on: SNB-75 CNS
# [11] = tested on: OVCAR-4 ovarian
# [12] = tested on: ACHN renal
# [13] = tested on: MDA-N
# [14] = tested on: MDA-MB-435
# [15] = tested on: T-47D breast
# [16] = tested on: SN12C renal
# [17] = tested on: NCI-H23 lung
# [18] = tested on: SK-MEL-5 melanoma
# [19] = tested on: HCC-2998 colon
# [20] = tested on: CAKI-1 renal
# [21] = tested on: OVCAR-3 ovarian
# [22] = tested on: SNB-19 CNS
# [23] = tested on: OVCAR-5 ovarian
# [24] = tested on: SK-MEL-28 melanoma
# [25] = tested on: 786-0 renal
# [26] = tested on: MDA-MB-231 breast
# [27] = tested on: MALME-3M melanoma
# [28] = tested on: HT29 colon
# [29] = tested on: U251 CNS
# [30] = tested on: MOLT-4 leukemia
# [31] = tested on: NCI-H226 lung
# [32] = tested on: OVCAR-8 ovarian
# [33] = tested on: TK-10 renal
# [34] = tested on: LOX IMVI melanoma
# [35] = tested on: BT-549 breast
# [36] = tested on: RXF 393 renal
# [37] = tested on: COLO 205 colon
# [38] = tested on: DU-145 prostate
# [39] = tested on: CCRF-CEM leukemia
# [40] = tested on: SF-295 CNS
# [41] = tested on: SF-268 CNS
# [42] = tested on: HOP-62 NSCLC
# [43] = tested on: MCF7 breast
# [44] = tested on: UACC-257 melanoma
# [45] = tested on: EKVX NSCLC
# [46] = tested on: HS 578T breast
# [47] = tested on: HOP-92 NSCLC
# [48] = tested on: UACC-62 melanoma
# [49] = tested on: SK-MEL-2 melanoma
# [50] = tested on: HCT-116 colon
# [51] = tested on: IGROV1 ovarian
# [52] = tested on: HL-60(TB) leukemia
# [53] = tested on: NCI-H522 lung
# [54] = tested on: RPMI-8226 leukemia
# [55] = tested on: SW-620 colon
# [56] = tested on: KM12 colon
# [57] = tested on: UO-31 renal
# [58] = tested on: NCI/ADR-RES ovarian
# [59] = tested on: SR leukemia
smiles,measurement,setting,value
CNC1NC(=O)c2ccccc2N1Cc1ccc(F)cc1 (configuration not stated),TGI,[1],> 100 µM
same,TGI,[2],> 100 µM
same,TGI,[3],> 100 µM
same,TGI,[4],> 100 µM
same,TGI,[5],> 100 µM
same,TGI,[6],> 100 µM
same,TGI,[7],> 100 µM
same,TGI,[8],> 100 µM
same,TGI,[9],> 100 µM
same,TGI,[10],> 100 µM
same,TGI,[11],> 100 µM
same,TGI,[12],> 100 µM
same,TGI,[13],> 100 µM
same,TGI,[14],> 100 µM
same,TGI,[15],> 100 µM
same,TGI,[16],> 100 µM
same,TGI,[17],> 100 µM
same,TGI,[18],> 100 µM
same,TGI,[19],> 100 µM
same,TGI,[20],> 100 µM
same,TGI,[21],> 100 µM
same,TGI,[22],> 100 µM
same,TGI,[23],> 100 µM
same,TGI,[24],> 100 µM
same,TGI,[25],> 100 µM
same,TGI,[26],> 100 µM
same,TGI,[27],> 100 µM
same,TGI,[28],> 100 µM
same,TGI,[29],> 100 µM
same,TGI,[30],> 100 µM
same,TGI,[31],> 100 µM
same,TGI,[32],> 100 µM
same,TGI,[33],> 100 µM
same,TGI,[34],> 100 µM
same,TGI,[35],> 100 µM
same,TGI,[36],> 100 µM
same,TGI,[37],> 100 µM
same,TGI,[38],> 100 µM
same,TGI,[39],> 100 µM
same,TGI,[40],> 100 µM
same,TGI,[41],> 100 µM
same,TGI,[42],> 100 µM
same,TGI,[43],> 100 µM
same,TGI,[44],> 100 µM
same,TGI,[45],> 100 µM
same,TGI,[46],> 100 µM
same,TGI,[47],> 100 µM
same,TGI,[48],> 100 µM
same,TGI,[49],> 100 µM
same,TGI,[50],> 100 µM
same,TGI,[51],> 100 µM
same,TGI,[52],> 100 µM
same,TGI,[53],> 100 µM
same,TGI,[54],> 100 µM
same,TGI,[55],> 100 µM
same,TGI,[56],> 100 µM
same,TGI,[57],26 µM
same,TGI,[58],> 100 µM
CC(=O)O/C(=C(/C#N)C(=O)O)C1C(C(=O)O)C(c2ccccc2[N+](=O)[O-])C=C(c2ccco2)N1c1ccncc1 (configuration not stated),TGI,[1],18.4 µM
same,TGI,[2],3.89 µM
same,TGI,[3],4.83 µM
same,TGI,[4],26.7 µM
same,TGI,[5],23.9 µM
same,TGI,[6],9.33 µM
same,TGI,[7],> 100 µM
same,TGI,[8],25 µM
same,TGI,[9],19.3 µM
same,TGI,[10],20.1 µM
same,TGI,[11],37.4 µM
same,TGI,[12],4.5 µM
same,TGI,[13],7.26 µM
same,TGI,[14],15.7 µM
same,TGI,[15],18.4 µM
same,TGI,[16],10.2 µM
same,TGI,[17],12.7 µM
same,TGI,[18],7.24 µM
same,TGI,[19],9.45 µM
same,TGI,[20],14.1 µM
same,TGI,[21],8.07 µM
same,TGI,[22],24.2 µM
same,TGI,[23],27.4 µM
same,TGI,[24],23.7 µM
same,TGI,[25],6.62 µM
same,TGI,[26],14.6 µM
same,TGI,[27],23 µM
same,TGI,[28],3.16 µM
same,TGI,[29],4.89 µM
same,TGI,[30],14.4 µM
same,TGI,[31],18.9 µM
same,TGI,[32],14.6 µM
same,TGI,[33],11.3 µM
same,TGI,[34],5.78 µM
same,TGI,[35],16.3 µM
same,TGI,[37],7.82 µM
same,TGI,[38],21.4 µM
same,TGI,[39],> 100 µM
same,TGI,[40],19.2 µM
same,TGI,[41],25.2 µM
same,TGI,[42],21.6 µM
same,TGI,[43],4.38 µM
same,TGI,[44],12 µM
same,TGI,[45],22.1 µM
same,TGI,[46],42 µM
same,TGI,[47],35.1 µM
same,TGI,[48],17 µM
same,TGI,[49],22.2 µM
same,TGI,[50],3.06 µM
same,TGI,[51],3.29 µM
same,TGI,[52],> 100 µM
same,TGI,[53],11.3 µM
same,TGI,[54],4.46 µM
same,TGI,[55],3.57 µM
same,TGI,[56],3.14 µM
same,TGI,[57],7.53 µM
same,TGI,[58],36.6 µM
C=C1C(C[C@@H]2O[C@H]3C[C@H]4O[C@@]5(C[C@@H]6O[C@]7(C[C@H](C)[C@@H]8O[C@@H]9CC(C(O)CO)O[C@@H]9C[C@@H]8O7)C[C@H](C)[C@@H]6O5)C[C@H]4O[C@H]3[C@H](C)[C@H]2O)O[C@@H](CC[C@@H]2O[C@@H](CC[C@@]34CC5O[C@H]6C(O[C@H]7CC[C@H](CC(=O)OC)O[C@@H]7[C@@H]6O3)[C@H]5O4)CC2=C)C[C@H]1C (some centres not stated),TGI,[1],> 1 µM
same,TGI,[3],0.0209 µM
same,TGI,[4],> 0.783 µM
same,TGI,[5],> 1 µM
same,TGI,[6],> 1 µM
same,TGI,[7],> 1 µM
same,TGI,[59],> 1 µM
same,TGI,[10],> 1 µM
same,TGI,[11],> 1 µM
same,TGI,[12],> 1 µM
same,TGI,[13],0.000124 µM
same,TGI,[14],0.000183 µM
same,TGI,[15],> 1 µM
same,TGI,[16],> 1 µM
same,TGI,[18],0.0559 µM
same,TGI,[20],> 1 µM
same,TGI,[21],> 1 µM
same,TGI,[22],> 1 µM
same,TGI,[23],> 1 µM
same,TGI,[24],> 1 µM
same,TGI,[29],> 1 µM
same,TGI,[30],> 1 µM
same,TGI,[31],0.0248 µM
same,TGI,[32],0.0125 µM
same,TGI,[33],> 1 µM
same,TGI,[34],> 0.292 µM
same,TGI,[35],0.00316 µM
same,TGI,[36],> 1 µM
same,TGI,[37],0.0035 µM
same,TGI,[39],> 1 µM
same,TGI,[41],> 1 µM
same,TGI,[42],> 1 µM
same,TGI,[43],> 1 µM
same,TGI,[44],> 1 µM
same,TGI,[45],> 1 µM
same,TGI,[47],> 1 µM
same,TGI,[48],> 1 µM
same,TGI,[51],0.579 µM
same,TGI,[52],> 1 µM
same,TGI,[55],> 1 µM
same,TGI,[57],> 1 µM
same,TGI,[58],0.0772 µM
